# From article doi:10.1101/2020.01.20.912972v1 (biorxiv, 2020)
# Legend:
# [1] = molecular target: TrpR (tryptophan repressor; TrpR-Wt) (Escherichia coli, UniProt P0A881); assay: isothermal titration calorimetry; type: binding
# [2] = molecular target: TrpR (tryptophan repressor; TrpR-Wt) (Escherichia coli, UniProt P0A881, S88Y); assay: isothermal titration calorimetry; type: binding
Compound,Kd [1] [µM],Kd [2] [µM]
"O=C(O)Cc1c[nH]c2ccccc12 [IAA, Indole-3-acetic acid]",162 ± 14,29.3 ± 2.08
"Cc1ccc2[nH]cc(CC(N)C(=O)O)c2c1 (racemic) [5-Met-TRP, 5-Methyl-DL-Tryptophan]",62.2 ± 15.6,–

# Molecules with a lower Kd [1], results first:
Kd [1] [µM],Kd [2] [µM],Compound
40.3 ± 2.35,–,"N[C@@H](Cc1c[nH]c2ccccc12)C(=O)O [TRP, Tryptophan]"
33.4 ± 1.16,7.49 ± 0.91,"O=C(O)CCc1c[nH]c2ccccc12 [IPA, Indole-3-propionic acid]"
32.7 ± 0.88,10.4 ± 1.25,"O=C(O)CCCc1c[nH]c2ccccc12 [IBA, Indole-3-butyric acid]"
